Test results reported in US10919894B2, “Adenine derivatives which are useful in the treatment of allergic diseases or other inflammatory conditions” (GlaxoSmithKline Biologicals SA, priority 2014, dated 2021).

Key:
[1] = system: PBMC/Monocytes; experiment: Inflammatory cytokine induction in PBMC/Monocytes; format: cell-based, human; design: key: * through ****; lowest to highest cytokine induction level; * through ****; lowest to highest cytokine induction level; * through ****; lowest to highest cytokine induction level; * through ****; lowest to highest cytokine induction level
Protocol: (§1) Compounds were dissolved in 2% glycerol in water to working concentrations starting at 10 μM, serially diluted to 0.00013 μM with 5-fold dilutions. This compound preparation was added to 96-well flat bottom plates at a volume of 10 μl.
(§2) Blood samples from human donors were collected into heparinized 60 cc syringes, and divided into 20 ml aliquots in 50 ml conical culture tubes. The whole blood aliquots were then diluted with 15 ml of PBS, and then underlay with 15 ml HISTOPAQUE™. The samples were centrifuged at 800 g for 30 min with no brake and the buffy coat interface carefully removed. The collected cells were centrifuged at 1500 rpm for 5 minutes and the pellet resuspended in 10 ml of PBS. The cells were pooled and further washed twice in PBS to remove all HISTOPAQUE™ from the samples. After the final wash, the combined cells were brought up in 20 ml complete media (RPMI 1640 supplemented with 10% v/v heat-inactivated Fetal Bovine Serum (FBS), 100 U/ml penicillin G, 100 μg/ml streptomycin, 10 mM L-glutamine), counted using a Countess automated cell counter (Invitrogen, Life Technologies) and diluted to give a final concentration of 2.8×10^6/ml. This cell suspension was added to the culture plate containing the compound preparations (see above), at a volume of 180 μl, resulting in a total well volume of 200 µl. […]

[2] = system: hPBMCs; experiment: TNFα induction in hPBMCs; format: cell-based, human; settings: 24 hours stimulation
Protocol: as §1
(§3) An additional 10 μl of media was added to these wells, or another compound preparation if co-stimulation was intended.
as §2, with “The cells were pooled and further washed twice in PBS to remove all HISTOPAQUE™ from the samples.” left out, “2.8×10^6/ml.” for “2.8×10^6/ml. This cell suspension was added to the culture plate containing the compound preparations (see above), at a volume of 180 μl, resulting in a total well volume of 200 µl.”
The induction of cytokines in human peripheral blood mononuclear cells (hPBMCs) after 24 hours stimulation with oxoadenines 3e-g was next evaluated using cytokine ELISA and intracellular cytokine staining (ICS). […]

[3] = system: human PBMCs; experiment: IL-12p70 induction in human PBMCs in combination with CRX601 (TLR4 agonist); format: cell-based; design: key to IL-12p70 w/601: * through ****; lowest to highest cytokine induction level; * through ****; lowest to highest cytokine induction level; * through ****; lowest to highest cytokine induction level; * through ****; lowest to highest cytokine induction level; settings: for IL-12p70 w/601: PBMC/Monocytes, in combination with CRX601; for synergy with CRX601 for IL12-p70: human PBMCs, FIGS. 8A and 8B
Protocol: as §3
Blood samples from human donors were collected into heparinized 60 cc syringes, and divided into 20 ml aliquots in 50 ml conical culture tubes. The whole blood aliquots were then diluted with 15 ml of PBS, and then underlay with 15 ml HISTOPAQUE™. The samples were centrifuged at 800 g for 30 min with no brake and the buffy coat interface carefully removed. The collected cells were centrifuged at 1500 rpm for 5 minutes and the pellet resuspended in 10 ml of PBS. The cells were pooled and further washed twice in PBS to remove all HISTOPAQUE™ from the samples. After the final wash, the combined cells were brought up in 20 ml complete media (RPMI 1640 supplemented with 10% v/v heat-inactivated Fetal Bovine Serum (FBS), 100 U/ml penicillin G, 100 μg/ml streptomycin, 10 mM L-glutamine), counted using a Countess automated cell counter (Invitrogen, Life Technologies) and diluted to give a final concentration of 2.8×10^6/ml. This cell suspension was added to the culture plate containing the compound preparations (see above), at a volume of 180 μl, resulting in a total well volume of 200 µl.
After 24 hr incubation (37° C., 95% air, 5% CO2), the supernatants were carefully removed and assayed for cytokine/chemokine induction using multiplex kits (FLUOROKINE™ multiplex kits from R&D Systems [bio-techne], Minneapolis, Minn.) and human IFNa VERIKINE™ ELISA kit (Pestka Biomedical Laboratories, Inc., Piscataway, N.J.).
As previously observed with other oxoadenines (see WO2010/018134), synergy with AGP CRX601 for IL12-p70 was relatively low compared to imidazoquinoline compound CRX642 (see WO2010/048520; PCT/US2009/061867; U.S. Pat. No. 8,624,029) in combination with CRX601.

[4] = target: T1, hTLR7 (Homo sapiens, UniProt Q9NYK1); experiment: NF-κB SEAP reporter gene assay in HEK293 cells stably transfected with hTLR7; format: cell-based; settings: for EC50: HEK 293, 24 h stimulation, NF-κB SEAP, read-out: TLR7 ED50; for higher TLR7 potency in relation to oxoadenine 3b: HEK293-hTLR7, FIG. 4A
T1 construct: host or cells: HEK293 cells stably transfected with hTLR7 and NF-κB SEAP reporter
T1 sequence (Q9NYK1 27-1049): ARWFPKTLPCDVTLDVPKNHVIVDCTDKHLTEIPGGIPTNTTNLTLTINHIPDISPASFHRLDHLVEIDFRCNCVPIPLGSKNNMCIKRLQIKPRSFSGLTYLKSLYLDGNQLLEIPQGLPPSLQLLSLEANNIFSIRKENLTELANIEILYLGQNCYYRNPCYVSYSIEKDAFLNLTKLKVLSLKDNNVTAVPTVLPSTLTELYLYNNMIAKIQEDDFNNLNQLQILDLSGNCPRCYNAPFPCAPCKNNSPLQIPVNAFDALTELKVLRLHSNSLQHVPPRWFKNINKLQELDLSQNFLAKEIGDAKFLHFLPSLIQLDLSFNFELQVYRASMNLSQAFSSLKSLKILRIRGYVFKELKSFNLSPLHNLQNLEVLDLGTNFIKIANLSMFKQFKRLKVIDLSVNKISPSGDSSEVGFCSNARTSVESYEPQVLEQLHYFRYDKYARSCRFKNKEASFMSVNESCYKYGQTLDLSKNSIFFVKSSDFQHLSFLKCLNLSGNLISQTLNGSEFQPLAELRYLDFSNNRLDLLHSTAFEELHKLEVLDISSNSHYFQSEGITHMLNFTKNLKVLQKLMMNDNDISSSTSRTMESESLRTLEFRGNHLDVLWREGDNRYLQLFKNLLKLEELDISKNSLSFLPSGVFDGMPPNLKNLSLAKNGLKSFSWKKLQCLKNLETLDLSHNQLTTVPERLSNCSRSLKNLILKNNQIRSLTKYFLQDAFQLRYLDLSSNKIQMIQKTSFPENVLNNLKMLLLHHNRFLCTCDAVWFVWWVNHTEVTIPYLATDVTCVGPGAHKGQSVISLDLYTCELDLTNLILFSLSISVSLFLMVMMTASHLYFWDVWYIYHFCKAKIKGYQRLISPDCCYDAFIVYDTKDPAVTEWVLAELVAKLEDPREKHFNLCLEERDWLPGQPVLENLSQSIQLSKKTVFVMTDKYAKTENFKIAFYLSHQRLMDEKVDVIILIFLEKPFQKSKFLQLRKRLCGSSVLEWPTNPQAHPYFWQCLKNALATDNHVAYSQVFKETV
Protocol: The human (h) TLR7/8 activity of oxoadenines 3a-g was assessed by a reporter gene assay using HEK293 cells stably transfected with either hTLR7 or hTLR8, and with the NF-κB SEAP (secreted embryonic alkaline phosphatase) reporter.
HEK293 cells expressing human TLR7 or TLR8, and NF-κB responsive SEAP reporter gene, were obtained from InvivoGen (San Diego, Calif.). These cells were maintained in culture media of Dulbecco's Modified Eagle Medium (DMEM)
(Invitrogen, Grand Island, N.Y.), 10% Fetal Bovine Serum (FBS) (Sigma, St. Louis, Mo.) and selection antibiotics (Invitrogen and InvivoGen). The stably transfected HEK293 cells were plated in 96-well flat bottom culture plates at 1^E5/well and stimulated for 24 h with a dose range of aqueous formulations of compounds starting at 200 μM, serially diluted to 0.012 μM with 2-fold dilutions (unless formulation conditions warranted lower starting concentrations). Culture supernatants were harvested and assayed for NFKB activation using the colorimetric SEAP detection kit QU ANTI-BLUE (a trademark of InvivoGen).
The assay measured NFKB mediated SEAP production following TLR7 or TLR8 specific activation.
It should be noted that the HEK assay is not optimal for evaluating TLR7 since TLR7 signals via both the NFKB (leading to induction of inflammatory cytokines) and IRF7 pathways (leading to IFN induction) and the HEK system only measures the NFKB side of TLR7 signaling. Oxoadenine 3a was not active on hTLR7 or hTLR8 but the other oxoadenines 3b-g were all active.

[5] = system: pDC and mDC in hPBMCs; experiment: Activation induced apoptosis by Annexin-V staining in pDC and mDC of stimulated hPBMCs; format: cell-based, human; settings: hPBMCs stimulated with various doses
From the text: This observed cell type specific apoptosis correlated with the dose-dependent IFNα and TNFα induction curves.

[6] = system: hPBMCs; experiment: IFNα induction in hPBMCs; format: cell-based; settings: human PBMCs, FIG. 6
Protocol: as §1, §3
as §2, with “2.8×10^6/ml.” for “2.8×10^6/ml. This cell suspension was added to the culture plate containing the compound preparations (see above), at a volume of 180 μl, resulting in a total well volume of 200 µl.”
The induction of IFNα from hPBMCs upon stimulation with oxoadenines 3a-g was also evaluated. […]

Row | SMILES | Infl. Cytok. [1] | TNFα induction in hPBMCs (in words) [2] | IL-12p70 w/601 [3] | synergy with CRX601 for IL12-p70 [3] | EC50 [4] [nM] | higher TLR7 potency in relation to oxoadenine 3b [4] [fold] | Annexin-V staining in mDC ([5]; mDC) | Annexin-V staining in pDC ([5]; pDC) | dose at which IFN-alpha is induced [6] [nM]
1 | CCCCOc1nc(N)c2[nH]c(=O)n(CCCCCC3CCNCC3)c2n1 [Compound 3f] | *** | high potency | ** | demonstrated synergy with CRX601 throughout a wide dose range | 26 | 50 | not in mDC | dose dependent increase in Annexin-V staining | ~1
2 | CCC[C@H](C)Oc1nc(N)c2nc(O)n(CCCCCC3CCNCC3)c2n1 [Compound 3x] | – | high potency | ** | demonstrated synergy with CRX601 throughout a wide dose range | 6 | 100 | – | – | ~1
